Laboratory results: patent US20260200974A1, “PEPTIDE FOR CARTILAGE REGENERATION, AND USES THEREOF” (CAREGEN CO., LTD., priority 2022, published 2026)
Where a SMILES comes first, the peptide text is derived from it. Where no end group is shown, it is not given here.

Columns and labels:
[1] = system: human adipose-derived mesenchymal stem cells (AD-MSC); assay: SRB staining, cell morphology changes; type: cell-based; details: peptide at different concentrations, FIG. 1, FIG. 2
Description: Additionally, for SRB staining, after suctioning the medium from the plate, 60 μL of 3.7% formalin was added to the 96-well plate to be stained and fixed for 1 minute. After suctioning 3.7% formalin, 70 μL of SRB staining solution (sulforhodamine B sodium salt (sigma, S9012): 0.2 g in 100 mL DDW) was added and stained. The plate was covered with aluminum foil, blocked from light, and incubated overnight at room temperature. After washing with 100 μL of 1% acetic acid using a multi-pipette, it was dried and observed under a microscope. Meanwhile, in this example, the positive control group (CM) used was one containing dexamethasone (100 nM), […], proline (40 μM), TGFβ1 (10 ng/ml), and 1×ITS.

[2] = system: human adipose-derived mesenchymal stem cells (AD-MSC); assay: CCK-8 assay, cytotoxicity; type: cell-based; details: 7 days, peptide at different concentrations, FIG. 3, FIG. 4
Description: Specifically, AD-MSC cells were seeded in 96-well plates at a density of 1.5×10^3 cells/well and cultured in Dulbecco's Modified Eagle's Medium (DMEM) supplemented with 10% FBS for 24 hours. Then, the medium was replaced with DMEM medium supplemented with 5% FBS, and Peptide-1 or Peptide-2 was treated at different concentrations, respectively. Subsequently, the medium was replaced every 3 days and Peptide-1 or Peptide-2 was treated at different concentrations, respectively. To confirm CCK-8 activity, after 7 days, CCK-8 (Dojindo, CCK-8 kit) solution was added at 1/10 volume of the culture medium, and incubated for 2 hours. The culture medium was sampled and CCK-8 activity was confirmed at a wavelength of 450 nm using a microplate reader.

Compound	change in cell morphology in SRB staining [1]	toxicity toward adipose-derived mesenchymal stem cells (CCK-8 activity) [2]
CC(C)C[C@H](NC(=O)[C@@H](N)CCCNC(=N)N)C(=O)N[C@@H](CCCNC(=N)N)C(=O)N[C@@H](CO)C(=O)O [Peptide-2, RLRS] (H-RLRS-OH)	did not show any change in cell morphology	did not exhibit toxicity
LYRYEEHHE [Peptide-1, LYRYEEHHE]	did not show any change in cell morphology	did not exhibit toxicity
